Values after ≈ are worked out from the molar mass of the structure shown.
Tested on: rhinovirus, HRV-14
Assay: Anti-picornaviral plaque reduction assay
Assay type: cell-based
Settings: Rhinovirus B, HRV14, Table 1, 50% inhibition of plaque formation, BSC-1 or Hela cells, 120 hours at 32° C., trans isomer

Row | IC50 [µg/mL] | Compound
1 | 2.58 (≈ 6.66 µM) | CS/C=C(\c1ccccc1)c1ccc2nc(N)n(S(=O)(=O)C(C)C)c2c1 [9 (parent), reference compound]
2 | 3.52 (≈ 8.72 µM) | CC(C)S(=O)(=O)n1c(N)nc2ccc(/C(=C/[S+](C)[O-])c3ccccc3)cc21 (centres unmarked) [10 (parent), reference compound]
3 | 0.05 (≈ 0.125 µM) | COC(=O)/C=C(\c1ccccc1)c1ccc2nc(N)n(S(=O)(=O)C(C)C)c2c1 [12 (parent), reference compound]
4 | 0.05 (≈ 0.139 µM) | CC(C)S(=O)(=O)n1c(N)nc2ccc(/C(=N/O)c3ccccc3)cc21 [13 (parent), reference compound]
5 | 0.05 (≈ 0.11 µM) | CC(C)S(=O)(=O)n1c(N)nc2ccc(/C(=C/S(C)(=O)=O)c3cccc(F)c3F)cc21 [Example 8, Trans 1-Isopropylsulfonyl-2-Amino-6-(1-[2,3-Difluorophenyl]-2-Methylsulfonylethen-1-yl)benzimidazole]
6 | 0.072 (≈ 0.17 µM) | CS/C=C(/c1ccc2nc(N)n(S(=O)(=O)C(C)C)c2c1)c1cccc(F)c1F [Example 9, 1-Isopropylsulfonyl-2-Amino-6-(1-[2,3-Difluorophenyl]-2-Methylsulfidoethen-1-yl)benzimidazole]
7 | 0.394 (≈ 0.896 µM) | CC(C)S(=O)(=O)n1c(N)nc2ccc(/C(=C/[S+](C)[O-])c3cccc(F)c3F)cc21 (centres unmarked) [Example 10]
8 | 0.048 (≈ 0.114 µM) | CC(=O)/C=C(/c1ccc2nc(N)n(S(=O)(=O)C(C)C)c2c1)c1cccc(F)c1F [Example 11, Trans 1-Isopropylsulfonyl-2-Amino-6-(1-[2,3-Difluorophenyl]-2-(1-Oxoeth-1-yl)ethen-1-yl)benzimidazole]
9 | 0.052 (≈ 0.119 µM) | COC(=O)/C=C(/c1ccc2nc(N)n(S(=O)(=O)C(C)C)c2c1)c1cccc(F)c1F [Example 12]
10 | 0.051 (≈ 0.129 µM) | CC(C)S(=O)(=O)n1c(N)nc2ccc(/C(=N/O)c3cccc(F)c3F)cc21 [Example 13, Trans 1-Isopropylsulfonyl-2-Amino-6-(1-[2,3-Difluorophenyl]oximyl)benzimidazole]
11 | 0.21 (≈ 0.523 µM) | CC(=O)/C=C(\c1ccc(F)cc1)c1ccc2nc(N)n(S(=O)(=O)C(C)C)c2c1 [Example 14, 1-Isopropylsulfonyl-2-Amino-6-(1-[4-Fluorophenyl]-2-(1-Oxoeth-1-yl)ethen-1-yl)benzimidazole]

— US6114327A, “Anti-viral compounds” (Eli Lilly and Company, priority 1999, dated 2000)
